In patent publication US20050050594A1, “Tryptophan synthase as a site of herbicide action” (priority 1999, published 2005):
Like-named read-outs stand apart in the source and are kept apart here.

Columns and labels:
[1] = target: T1, Salmonella typhimurium tryptophan synthase holoenzyme (α2β2), TSα reaction (Salmonella typhimurium, UniProt P00929); test: Inhibition of tryptophan synthase by the TSα reaction, microtiter kinetic coupled enzyme assay; assay type: biochemical; conditions: for activity in enzyme inhibitory assays, relative to inhibitors 1-5: comparison within the series of inhibitors 1 to 5
T1 construct: made in house; host or cells: E. coli strain CB149pSTB7
T1 sequence (P00929 whole entry): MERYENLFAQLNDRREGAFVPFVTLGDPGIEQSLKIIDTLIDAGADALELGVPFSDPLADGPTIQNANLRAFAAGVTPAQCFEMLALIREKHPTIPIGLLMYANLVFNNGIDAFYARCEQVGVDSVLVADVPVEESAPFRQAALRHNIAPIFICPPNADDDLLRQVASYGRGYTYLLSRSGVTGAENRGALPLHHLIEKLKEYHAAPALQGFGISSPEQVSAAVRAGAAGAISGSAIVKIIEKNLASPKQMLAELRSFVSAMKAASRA
T1 sequence (P0A2K1 2-397, further chain): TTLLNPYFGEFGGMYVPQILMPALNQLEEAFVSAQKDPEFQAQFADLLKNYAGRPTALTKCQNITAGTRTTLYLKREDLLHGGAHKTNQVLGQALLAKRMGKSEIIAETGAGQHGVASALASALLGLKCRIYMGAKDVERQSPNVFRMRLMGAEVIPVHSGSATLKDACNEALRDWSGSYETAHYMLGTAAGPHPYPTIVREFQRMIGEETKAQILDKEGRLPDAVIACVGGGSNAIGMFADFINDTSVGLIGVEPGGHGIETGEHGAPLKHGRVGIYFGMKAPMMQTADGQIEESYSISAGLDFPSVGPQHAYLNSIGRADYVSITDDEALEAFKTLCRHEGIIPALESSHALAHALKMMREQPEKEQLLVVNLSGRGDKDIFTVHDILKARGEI
Source text: Inhibitors of TS were identified by their ability to inhibit the production of glyceraldehyde-3-P by the TSα reaction of the Salmonella typhimurium holoenzyme (α2β2) in the presence of a limiting amount of indole-3-glycerolphosphate and an excess of serine
The assay was developed as a new microtiter plate kinetic enzyme assay based on the combined methods of Creighton (EurJBch 13:1-10, 1970) and Creighton and Yanofsky (JBC 241:980, 1966) with modifications. The rate of glyceraldehyde production was measured as the linear […] (spectrophotometric absorbance at 340 nm) in the presence of glyceraldehyde-3-phosphate dehydrogenase in a coupled enzyme assay.
The assay solution contained a test inhibitor compound, 50 mM Tris-Cl (pH 7.8), 6 mM sodium arsenate, 5 μg/ml pyridoxal phosphate, 0.5 mM DTT, 0.18M NaCl, 60 mM serine, 1.6 mM NAD+, 8 e.u./ml yeast glyceraldehyde-3-phosphate dehydrogenase (Sigma, Catalog #G2647; Kirschner et al., Eur J Bch, 1975, 60:513 and approximately 1.5 e.u. Salmonella TS. 100 μM IGP was added to start the reaction, which was run at 37° C. and using 300 μl per assay in a microtiter plate.
The substrate IGP was used at 1.5 to 2 times its Km concentration to enhance the likelihood of identifying weak inhibitors, binding at the substrate binding site. This approach to identifying enzyme inhibitors was novel, since an excess of all substrates, (at least 5-times the Km value of each), is conventionally used in the measurement of enzyme activity.
Potential inhibitors were evaluated by adding 100 μM inhibitor (equimolar to substrate IGP):or less, in a 1:1 dilution series down from 100 μM, until the inhibition measured was less than 15%. Reaction rates at Vmax were compared in the presence and absence of inhibitors.
In addition, some weaker inhibitors were identified following preincubation of the inhibitor with the TS assay mix for 24 hrs prior to the addition of IGP. The identifying weaker inhibitors is to aid in a quantitative structure activity relationship (QSAR) evaluation, or to identify new herbicidal inhibitor leads. The previously known inhibitor IPP was used as a standard in all tests, where the I50 for IPP was 1-2 uM.

[2] = system: a variety of dicotyledonous and monocotyledonous plants; test: Postemergence greenhouse herbicidal test; assay type: in vivo; conditions: for activity in herbicidal (biological) assays, relative to inhibitors 1-5: comparison within the series of inhibitors 1 to 5
Experimental: The herbicidal activity of the compounds was tested as described in the U.S. Pat. No. 5,635,449. […] In the tests, seedling plants are grown in jiffy flats for about two weeks. The test compounds are dispersed in 50/50 acetone/water mixtures containing 0.5% TWEEN®20, a polyoxyethylene sorbitan monolaurate surfactant of Atlas Chemical Industries, in sufficient quantities to provide the equivalent of about 1.0 kg to 8.0 kg per hectare of test compound when applied to the plants through a spray nozzle operating at 40 psi for a predetermined time. After spraying, the plants are placed on greenhouse benches and are cared for in the usual manner, commensurate with conventional greenhouse practices. From four to five weeks after treatment, the seedling plants are examined and rate according to the rating system set forth below.

[3] = target: T2, Arabidopsis TS enzyme (Arabidopsis thaliana, UniProt Q42529); test: TSα assay with recombinant plant TSα and TSβ expressed in E. coli; assay type: biochemical; conditions: inhibitor 82 uM; pAC 758 (1.5 ug) + pAC 755 (3 ug)
T2 construct: GST (N, cleaved yes); made in house; host or cells: E. coli DH5α (pGEX-2T constructs)
T2 sequence (Q42529 with tags, fused parts or gaps): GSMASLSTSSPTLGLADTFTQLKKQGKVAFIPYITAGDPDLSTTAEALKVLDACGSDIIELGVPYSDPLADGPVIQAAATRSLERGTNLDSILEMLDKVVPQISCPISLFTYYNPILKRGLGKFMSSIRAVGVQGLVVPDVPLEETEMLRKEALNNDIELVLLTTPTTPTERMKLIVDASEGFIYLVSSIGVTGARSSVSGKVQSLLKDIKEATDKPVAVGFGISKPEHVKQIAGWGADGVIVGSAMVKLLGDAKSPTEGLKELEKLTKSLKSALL
T2 sequence (P14671 with tags, fused parts or gaps partner): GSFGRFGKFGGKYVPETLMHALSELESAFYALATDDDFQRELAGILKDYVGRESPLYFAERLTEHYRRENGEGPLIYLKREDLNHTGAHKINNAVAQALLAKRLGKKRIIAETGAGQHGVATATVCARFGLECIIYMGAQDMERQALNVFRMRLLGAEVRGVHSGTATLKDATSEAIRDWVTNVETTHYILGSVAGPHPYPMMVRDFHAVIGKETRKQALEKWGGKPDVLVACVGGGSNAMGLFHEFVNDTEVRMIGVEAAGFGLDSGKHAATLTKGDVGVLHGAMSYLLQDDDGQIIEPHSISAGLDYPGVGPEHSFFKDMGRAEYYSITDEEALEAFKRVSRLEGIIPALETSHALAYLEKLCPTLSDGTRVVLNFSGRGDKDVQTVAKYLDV
Experimental: The plant TS proteins were expressed as fusion proteins with glutathione transferase (GST) to facilitate purification. After purification, the GST protein was cleaved off with thrombin as described above before the plant TS assays were performed. After thrombin cleavage, both TSα and TSβ-subunit proteins retained a Gly-Ser residue on the N-terminal of the protein in addition to the TS sequence. […]
The TSα enzyme assay was conducted as described in Example 3 for Salmonella TSα.
Specifically, phenylthiophosphonic acid compounds were used. The TSα assay conditions were as described for Salmonella TSα in Example 3 except that recombinant plant proteins were used instead of the Salmonella enzyme.

[4] = system: Arabidopsis thaliana; test: Herbicidal activity and tryptophan reversal on Arabidopsis grown on agar medium; assay type: in vivo; set-up: key: 0 - no effect; 9 - total kill; C - chlorotic seedlings 4-6 days after treatment
Experimental: In this experiment, TS inhibitors were tested on Arabidopsis thaliana grown Murashige minimal organics medium, (obtained from Life Technologies, Grand Island, N.Y.), containing 0.7% agar. Compounds were tested at different concentrations to assess their herbicidal activity.

[5] = system: Synechocystis PCC 6803; test: End-product reversal in Synechocystis, culture growth in liquid medium; assay type: cell-based; conditions: for Culture density (%) / Culture density as A420: four days
Source text: Synechocystis is a unicellular green organism that is actually a photosynthetic bacterium, with a photosynthetic system very similar to that of higher plant chloroplasts. Culture growth of Synechocystis could be inhibited by a compound of the present invention, and the growth inhibition could be prevented in the presence of tryptophan.

[6] = I50 TS, TSα reaction of the highly purified Salmonella typhimiurium holoenzyme
[7] = post emergence greenhouse test, 4 kg/ha
[8] = I50 TS, TSα reaction of Salmonella holoenzyme
[9] = inhibitor 62 μM, +tryptophan 31 μM
[10] = inhibitor 62 μM, +tryptophan 62 μM
[11] = inhibitor 125 μM, +tryptophan 31 μM
[12] = inhibitor 125 μM, +tryptophan 62 μM
[13] = inhibitor 125 μM, no tryptophan

O=P(O)(O)CCCc1c[nH]c2ccccc12 [Compound 7a]
IC50 [1, 6]: 125 µM
Herbicidal Activity [2, 7]: inactive

CC(C)N.CC(C)N.O=P(O)(O)C=CCCSc1ccccc1O [Inhibitor 1, 4-(2-hydroxyphenylthio)-1-butenylphosphonic acid, 1:2 salt with isopropylamine]
activity in enzyme inhibitory assays, relative to inhibitors 1-5 [1]: highest activity
activity in herbicidal (biological) assays, relative to inhibitors 1-5 [2]: highest activity

Nc1ccccc1SCCCCP(=O)(O)O [Compound 13, 4-(2-aminophenylthio)-butylphosphonic acid]
IC50 ([1]; TSα reaction of Salmonella holoenzyme, read-out: I50 TS): 0.4 µM
activity in enzyme inhibitory assays, relative to inhibitors 1-5 [1]: weakest activity
Herbicidal Activity ([2]; Postemergence application): + (+ = 30-80% injury to one species)
activity in herbicidal (biological) assays, relative to inhibitors 1-5 [2]: weakest activity

O=P(O)(O)C=CCCSc1cc(Br)ccc1O [Compound 31, Phosphonic acid, {4-[(5-bromo-2-hydroxyphenyl)thio]-1-butenyl}-]
IC50 [1, 8]: 0.26 µM
Herbicidal Activity ([2]; Postemergence application): + (+ = 30-80% injury to one species)
TSα activity, % of control [3]: 16.1 % of control
TSα activity, relative Vmax [3]: 0.238 mOD/min

O=P(O)(O)C=CCCSc1ccccc1O [Compound 28, {4-[(o-hydroxyphenyl)thio]-1-butenyl}phosphonic acid]
IC50 [1, 8]: 0.57 µM
Herbicidal Activity ([2]; Postemergence application): ++++ (++++ = 80-100% injury to more than three species)
herbicidal rating ([4]; herbicide 7.8 mM + 100 μM Trp): 0
herbicidal rating ([4]; herbicide 7.8 mM, no Trp): 5C
herbicidal rating ([4]; herbicide 16 mM + 100 μM Trp): 0
herbicidal rating ([4]; herbicide 16 mM, no Trp): 5C
herbicidal rating ([4]; herbicide 31 mM + 100 μM Trp): 0
herbicidal rating ([4]; herbicide 31 mM, no Trp): 5C
herbicidal rating ([4]; herbicide 63 mM + 100 μM Trp): 0
herbicidal rating ([4]; herbicide 63 mM, no Trp): 6C
herbicidal rating ([4]; herbicide 125 mM + 100 μM Trp): 0
herbicidal rating ([4]; herbicide 125 mM, no Trp): 6C
herbicidal rating ([4]; herbicide 250 mM + 100 μM Trp): 0
herbicidal rating ([4]; herbicide 250 mM, no Trp): 6C
herbicidal rating ([4]; herbicide 500 mM + 100 μM Trp): 0
herbicidal rating ([4]; herbicide 500 mM, no Trp): 6C
herbicidal rating ([4]; herbicide 1000 mM + 100 μM Trp): 0
herbicidal rating ([4]; herbicide 1000 mM, no Trp): 6C

O=C(Oc1ccccc1SCCCCP(=O)(O)O)c1ccccc1 [Phosphonic acid, {4-[(2-hydroxyphenyl)thio]butyl}-, benzoate (ester)]
TSα activity, % of control [3]: 2.7 % of control
TSα activity, relative Vmax [3]: 0.168 mOD/min
effect of tryptophan on the growth inhibitory effects [5]: completely reversed
Culture density (%) [5, 9]: 136%
Culture density as A420 [5, 9]: 0.726
Culture density (%) [5, 10]: 132%
Culture density as A420 [5, 10]: 0.704
Culture density (%) ([5]; inhibitor 62 μM, no tryptophan): 84%
Culture density as A420 ([5]; inhibitor 62 μM, no tryptophan): 0.449
Culture density (%) [5, 11]: 116%
Culture density as A420 [5, 11]: 0.622
Culture density (%) [5, 12]: 102%
Culture density as A420 [5, 12]: 0.544
Culture density (%) [5, 13]: 7%
Culture density as A420 [5, 13]: 0.040

O=P(O)(O)CCCCc1c[nH]c2ccccc12 [Compound 7b, Phosphonic acid, [4-(indol-3-yl)butyl]-]
IC50 [1, 6]: 20 µM
IC50 ([1]; TS inhibition I50, TSα reaction, Salmonella holoenzyme, 30 min at 37° C., 100 μM IGP): 20 µM
Herbicidal Activity [2, 7]: weak (weak activity = maximum 20-30% injury on any species)

O=P(O)(O)CCCC[S+]([O-])c1ccccc1O (stereo not shown) [Compound 32, {4-[(o-hydroxyphenyl)sulfinyl]butyl}phosphonic acid]
IC50 [1, 8]: 0.44 µM
Herbicidal Activity ([2]; Postemergence application): +++ (+++ = 80-100% injury to two species)
TSα activity, % of control [3]: 1.5 % of control
TSα activity, relative Vmax [3]: 0.095 mOD/min
